Assay results: patent US12030897B2, “Pyrrolo[2,1-f][1,2,4]triazine derivatives serving as selective HER2 inhibitors and application thereof” (MEDSHINE DISCOVERY INC., priority 2018, dated 2024)
Where “and” joins values, the source holds several entries; their conditions need not be identical. Equal values may be shown once. Read-outs that look alike come from different tables or passages of the source.

How the values were obtained:
[1] = Pharmacokinetic properties in rats; format: in vivo; details: male, SD
Procedure: The tested compound was dissolved in 10% NMP/10% polyethylene glycol-15-hydroxystearate/80% water, vortexed and sonicated to prepare a 2.5 mg/mL clear solution, which was filtered through a millipore filter for use. Three male SD rats were administered intravenously with the candidate compound solution at a dose of 5 mg/kg. The tested compound was dissolved in 10% polyethylene glycol-15-hydroxystearate/90% water (50 mM citrate buffer, pH 3.0), adjusted to pH of about 3.5, vortexed and sonicated to prepare a 5 mg/ml clear solution, which was filtered through a millipore filter for use. Three male SD rats were administered orally with the candidate compound solution at a dose of 50 mg/kg. The whole-blood for a certain period of time was collected to prepare plasma. The drug concentration was analyzed by the LC-MS/MS method, and the pharmacokinetic parameters were calculated by the Phoenix WinNonlin software (Pharsight, USA).

CYP2D6 = CYP2D6 (Homo sapiens (Human), UniProt P10635); experiment: Inhibition of human liver microsomal cytochrome P450 isoenzyme CYP2D6; format: in vitro ADME; details: human liver microsomes
Procedure: (§1) The object of this study was to evaluate the effect of Example 4 on the activities of five isoenzymes (CYP1A2, CYP2C9, CYP2C19, CYP2D6 and CYP3A4) of human liver microsomal cytochrome P450 (CYP) using an in vitro test system. The specific probe substrates of CYP450 isozymes were incubated with human liver microsomes and different concentrations of Example 4, and reduced nicotinamide adenine dinucleotide phosphate (NADPH) was added to initiate the reaction. After the reaction was completed, the samples were treated, and liquid chromatography tandem mass spectrometry (LC/MS/MS) was used to detect the metabolites produced by specific substrates.

CYP3A4 = CYP3A4 (Homo sapiens (Human), UniProt P08684); experiment: Inhibition of human liver microsomal cytochrome P450 isoenzyme CYP3A4; format: in vitro ADME; details: human liver microsomes
Procedure: as §1

[2] = Concentration of Example 4 in plasma, tumor tissue and brain tissue (NCI-N87 model, day 21); format: in vivo, BALB/c nude mice; details: BALB/c nude, mouse, 100 mg/kg; for concentration at 0.5 h: day 21, 0.5 h after last administration; for concentration at 1 h: day 21, 1 h after last administration; for concentration at 2 h: day 21, 2 h after last administration
Procedure: On day 21, the whole blood, tumor tissue, and brain tissue of two mice were collected 0.5 hour, 1 hour, and 2 hours after the last administration. The whole blood was centrifuged to prepare plasma, and the tumor tissue and brain tissue were homogenized to prepare tissue homogenate, and the drug concentration in plasma and tissue homogenate was analyzed by the LC-MS/MS method.

HER4 (ErbB4) = HER4 (ErbB4) (Homo sapiens (Human), UniProt Q15303); experiment: In vitro enzyme activity, HER4 (ErbB4), [γ-33P]ATP filter assay; format: biochemical
Procedure: The object of this test is to detect the in vitro inhibitory activity of the compound against HER1 (ErbB1), HER2 (ErbB2) and HER4 (ErbB4). The enzymes used in this test were human ErbB1, ErbB2 and ErbB4. Eurofins Pharma Discovery Service provided the activity detection method, and the results of the inhibitory activity of the tested compound against HER1, HER2 and HER4 were shown in Table 1.
Experimental Steps and Methods (96-Well Plate):
5-fold diluted tested compound buffer (5 μL), peptide substrate poly(Glu, Tyr) (4:1) (2.5 μL), ErbB (4-20 ng, 2.5 μL), MnCl2 (50 mM, 1.25 μL), dH2O (3.75 μL) and [γ-^33P]ATP (10 μL) were added, and incubated at 30° C. for 10 min. 3% phosphoric acid was added to terminate the reaction, and 10 μL of the specimen was transferred to Filtermate A. The filter was washed with 75 mM phosphoric acid for three times and methanol once, and transferred to a sealed plastic bag, and a scintillation fluid mixture (4 mL) was added, The intensity of the emitted photons was detected on the scintillation luminescence counter. The photon intensity of the enzyme sample was compared with the photon intensity of the internal control sample, and the level of photon intensity reflected the strength of the tyrosine kinase activity.

CYP2C9 = CYP2C9 (Homo sapiens (Human), UniProt P11712); experiment: Inhibition of human liver microsomal cytochrome P450 isoenzyme CYP2C9; format: in vitro ADME; details: human liver microsomes
Procedure: as §1

[3] = test system: human breast cancer BT-474 cell subcutaneous xenograft tumor; experiment: In vivo efficacy, BT-474 subcutaneous xenograft tumor model; parameters: species or system BALB/c nude mice; details: BT-474 xenograft, 100 mg/kg
Procedure: Experiment object: to study the in vivo efficacy of the tested compound in human breast cancer BT-474 cell BALB/c nude mouse subcutaneous xenograft tumor model.
Experimental animals: female BALB/c nude mice, 6 to 8 weeks old, weight: 18 to 22 grams; Supplier Beijing Weitonglihua Laboratory Animal Technology Co., Ltd.
Human breast cancer BT474 cells were cultured in a monolayer in vitro. The culture conditions were: ATCC Hybri-Care Medium with 1.5 g/L sodium bicarbonate, 10% fetal bovine serum, 100 U/mL penicillin and 100 μg/mL streptomycin, and 37° C., 5% CO2 incubator. Conventional digestion treatment with pancreatin-EDTA for passage was carried out twice a week. When the cell saturation was 80% to 90%, and the number reached the requirement, the cells were collected, counted and inoculated.
0.2 mL (1×10^7 cells) of BT474 cells (with matrigel in a volume ratio of 1:1) were subcutaneously inoculated on the right back of each mouse. The grouping and administration were started when the average tumor volume reached about 168 mm^3. (Estrogen tablets were inoculated three days before cell inoculation).
7.3 the Preparation of the Tested Samples, Tumor Measurement, Experimental Index and Statistical Analysis were the Same as in Experimental Example 6.

CYP2C19 = CYP2C19 (Homo sapiens (Human), UniProt P33261); experiment: Inhibition of human liver microsomal cytochrome P450 isoenzyme CYP2C19; format: in vitro ADME; details: human liver microsomes
Procedure: as §1

[4] = brain tissue, read-out: Drug concentration, brain tissue
[5] = plasma, read-out: Drug concentration, plasma
[6] = tumor tissue, read-out: Drug concentration, tumor tissue

CYP2C9, sequence (P11712 whole entry): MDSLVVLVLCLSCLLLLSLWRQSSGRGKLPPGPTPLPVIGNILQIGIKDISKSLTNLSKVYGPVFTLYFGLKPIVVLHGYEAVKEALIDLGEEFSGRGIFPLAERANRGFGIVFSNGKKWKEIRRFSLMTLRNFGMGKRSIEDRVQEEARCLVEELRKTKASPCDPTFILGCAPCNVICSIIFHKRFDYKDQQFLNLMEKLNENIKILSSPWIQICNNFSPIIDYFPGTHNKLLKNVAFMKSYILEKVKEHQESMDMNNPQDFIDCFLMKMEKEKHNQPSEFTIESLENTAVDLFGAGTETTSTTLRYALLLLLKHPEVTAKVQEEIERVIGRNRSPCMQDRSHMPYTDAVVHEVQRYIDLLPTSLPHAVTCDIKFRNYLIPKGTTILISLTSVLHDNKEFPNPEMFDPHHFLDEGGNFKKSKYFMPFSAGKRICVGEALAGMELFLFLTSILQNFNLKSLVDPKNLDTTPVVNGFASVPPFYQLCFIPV
CYP2D6, sequence (P10635 whole entry): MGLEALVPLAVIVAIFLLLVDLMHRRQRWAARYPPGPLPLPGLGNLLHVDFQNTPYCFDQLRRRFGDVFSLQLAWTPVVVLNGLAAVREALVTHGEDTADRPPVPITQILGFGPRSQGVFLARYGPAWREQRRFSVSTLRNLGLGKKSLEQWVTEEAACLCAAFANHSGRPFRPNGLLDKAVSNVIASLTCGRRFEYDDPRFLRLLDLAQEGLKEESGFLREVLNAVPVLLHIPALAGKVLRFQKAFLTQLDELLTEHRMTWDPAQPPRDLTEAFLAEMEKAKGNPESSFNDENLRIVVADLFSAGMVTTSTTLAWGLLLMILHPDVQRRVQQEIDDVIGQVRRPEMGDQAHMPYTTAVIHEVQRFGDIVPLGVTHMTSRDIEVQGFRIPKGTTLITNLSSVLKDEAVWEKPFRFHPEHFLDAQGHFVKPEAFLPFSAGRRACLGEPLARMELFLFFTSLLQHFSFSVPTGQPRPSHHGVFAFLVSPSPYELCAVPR
CYP2C19, sequence (P33261 whole entry): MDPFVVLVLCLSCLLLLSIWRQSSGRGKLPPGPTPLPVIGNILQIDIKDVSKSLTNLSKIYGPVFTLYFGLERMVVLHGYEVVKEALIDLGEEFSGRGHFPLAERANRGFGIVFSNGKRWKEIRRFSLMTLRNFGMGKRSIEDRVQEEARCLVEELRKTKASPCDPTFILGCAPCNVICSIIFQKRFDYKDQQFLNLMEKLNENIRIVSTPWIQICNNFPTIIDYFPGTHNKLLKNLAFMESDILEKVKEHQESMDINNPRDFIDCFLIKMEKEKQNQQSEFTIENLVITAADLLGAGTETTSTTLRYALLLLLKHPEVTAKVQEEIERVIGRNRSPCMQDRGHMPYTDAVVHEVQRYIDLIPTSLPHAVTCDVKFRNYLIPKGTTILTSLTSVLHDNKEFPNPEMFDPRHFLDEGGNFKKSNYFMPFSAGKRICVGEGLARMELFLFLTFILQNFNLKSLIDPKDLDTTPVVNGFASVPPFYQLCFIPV
HER4 (ErbB4), sequence (Q15303 26-1308): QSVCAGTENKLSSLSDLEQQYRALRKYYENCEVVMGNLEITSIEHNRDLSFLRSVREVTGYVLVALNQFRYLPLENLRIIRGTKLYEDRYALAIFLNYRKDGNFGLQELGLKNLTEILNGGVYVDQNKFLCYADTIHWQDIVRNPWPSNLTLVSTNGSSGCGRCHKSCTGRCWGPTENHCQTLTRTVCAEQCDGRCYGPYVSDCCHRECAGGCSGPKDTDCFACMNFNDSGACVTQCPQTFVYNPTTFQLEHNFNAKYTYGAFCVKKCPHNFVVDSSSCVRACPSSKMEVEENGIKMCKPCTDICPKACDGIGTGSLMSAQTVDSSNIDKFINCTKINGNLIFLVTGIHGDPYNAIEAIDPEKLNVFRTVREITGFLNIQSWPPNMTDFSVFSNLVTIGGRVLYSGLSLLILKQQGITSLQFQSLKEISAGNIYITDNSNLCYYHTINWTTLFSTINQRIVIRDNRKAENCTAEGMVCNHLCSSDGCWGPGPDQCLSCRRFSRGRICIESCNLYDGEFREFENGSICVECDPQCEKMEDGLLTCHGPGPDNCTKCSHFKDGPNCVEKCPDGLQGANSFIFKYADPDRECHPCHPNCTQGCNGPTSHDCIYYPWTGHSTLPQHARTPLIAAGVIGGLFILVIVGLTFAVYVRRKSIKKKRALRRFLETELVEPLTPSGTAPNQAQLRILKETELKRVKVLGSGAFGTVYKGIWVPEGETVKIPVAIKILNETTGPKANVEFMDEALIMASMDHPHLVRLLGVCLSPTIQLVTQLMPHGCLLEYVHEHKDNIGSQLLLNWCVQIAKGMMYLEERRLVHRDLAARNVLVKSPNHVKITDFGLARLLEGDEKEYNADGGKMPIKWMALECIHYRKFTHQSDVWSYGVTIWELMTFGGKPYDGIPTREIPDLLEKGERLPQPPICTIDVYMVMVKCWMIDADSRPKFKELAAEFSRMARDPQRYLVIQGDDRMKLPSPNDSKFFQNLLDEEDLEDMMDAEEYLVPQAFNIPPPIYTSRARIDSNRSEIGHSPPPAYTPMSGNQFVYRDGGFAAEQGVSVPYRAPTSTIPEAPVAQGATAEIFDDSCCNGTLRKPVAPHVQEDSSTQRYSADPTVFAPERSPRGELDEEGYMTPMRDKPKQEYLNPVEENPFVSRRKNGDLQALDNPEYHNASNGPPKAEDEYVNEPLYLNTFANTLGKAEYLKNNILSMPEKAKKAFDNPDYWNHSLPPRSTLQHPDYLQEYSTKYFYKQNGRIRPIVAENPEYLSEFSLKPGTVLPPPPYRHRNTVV
CYP3A4, sequence (P08684 whole entry): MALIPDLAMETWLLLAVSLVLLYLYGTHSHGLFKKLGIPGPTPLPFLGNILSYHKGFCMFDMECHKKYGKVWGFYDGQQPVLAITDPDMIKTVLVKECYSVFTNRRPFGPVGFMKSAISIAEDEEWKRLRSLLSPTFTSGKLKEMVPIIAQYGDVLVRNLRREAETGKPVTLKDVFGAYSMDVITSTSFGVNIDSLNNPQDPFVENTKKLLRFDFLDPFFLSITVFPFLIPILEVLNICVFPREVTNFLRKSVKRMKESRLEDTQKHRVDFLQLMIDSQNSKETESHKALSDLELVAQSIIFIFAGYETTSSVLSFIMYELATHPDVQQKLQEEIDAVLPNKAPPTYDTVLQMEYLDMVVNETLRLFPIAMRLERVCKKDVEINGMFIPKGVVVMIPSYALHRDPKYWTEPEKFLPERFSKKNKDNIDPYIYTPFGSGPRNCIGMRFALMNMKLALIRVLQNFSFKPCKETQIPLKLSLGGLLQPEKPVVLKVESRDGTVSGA

Cc1cc(Nc2ncnn3ccc(CN4CCC(N)CC4)c23)ccc1Oc1ccn2ncnc2c1 [Example 4]
clearance ([1]; plasma, rat, IV 5 mg/kg): 25.4 mL/min/kg
Vd ([1]; plasma, rat, IV 5 mg/kg, read-out: Vdss): 5.86 L/kg
bioavailability ([1]; plasma, rat, PO 50 mg/kg, read-out: F (oral bioavailability)): 49.6%
AUC(0-inf) ([1]; rat plasma, IV 5 mg/kg): 6.95 µM·h
AUC(0-t) ([1]; rat plasma, IV 5 mg/kg): 6.91 µM·h
half-life ([1]; rat plasma, IV 5 mg/kg): 3.34 h
AUC(0-inf) ([1]; rat plasma, PO 50 mg/kg): 34.9 µM·h
AUC(0-t) ([1]; rat plasma, PO 50 mg/kg): 34.3 µM·h
Cmax ([1]; rat plasma, PO 50 mg/kg): 3.63 µM
Tmax ([1]; rat plasma, PO 50 mg/kg): 3.33 h
half-life ([1]; rat plasma, PO 50 mg/kg): 3.9 h
IC50 (CYP2D6): 25.4 µM
IC50 (CYP3A4): 32.4 µM
concentration at 0.5 h [2, 4]: 0.538 µM
concentration at 1 h [2, 4]: 0.631 µM
concentration at 2 h [2, 4]: 1.01 µM
concentration at 0.5 h [2, 5]: 8.6 µM
concentration at 1 h [2, 5]: 7.58 µM
concentration at 2 h [2, 5]: 12.8 µM
concentration at 0.5 h [2, 6]: 9.45 µM
concentration at 1 h [2, 6]: 11.2 µM
concentration at 2 h [2, 6]: 21.4 µM
IC50 (HER4 (ErbB4)): 0.156 µM
IC50 (CYP2C9): > 50 µM
RTV ([3]; day 20): 0.20 ± 0.02
T/C ([3]; day 20): 2.62%
TGI ([3]; day 20): 112.93%
Tumor volume ([3]; day 20 (head: Day 21), mean ± SEM): 33 mm^3 and 33 ± 3 mm^3
IC50 (CYP2C19): 36.1 µM
